Data: patent US20050197350A1, “Novel quinoline, tetrahydroquinazoline, and pyrimidine derivatives and methods of treatment related to the use thereof” (TAISHO PHARMACEUTICAL CO., LTD., priority 2003, published 2005)

Test system: MCH receptors
Assay: MCH receptor activity class (method not given)
Conditions: not given

| class | Compound |
| --- | --- |
| 1 | Cc1cc(N[C@H]2CC[C@@H](NC(=O)COc3ccc(Cl)cc3)CC2)nc2ccccc12 [Example 2551, 2-(4-chlorophenoxy)-N-{cis-4-[(4-methylquinolin-2-yl)amino]cyclohexyl}acetamide] |

Same assay, conditions: MCH receptor activity class 1-3 (percent of control at 10^-7 M or IC50)

| Compound | class |
| --- | --- |
| CN(C)c1cc(N[C@H]2CC[C@@H](CNC(=O)Nc3c(Cl)cccc3C(F)(F)F)CC2)nc2ccccc12 [compound 2373] | 2 (Class 2: The value of percent of control at 10^−7 M was from 40% to 60% or the value of IC′50 was from 50 nM to 200 nM.) |
| CN(C)c1ccnc(N[C@H]2CC[C@@H](CNC(=O)Nc3ccc(Cl)cc3C(F)(F)F)CC2)n1 [compound 2433] | 2 (Class 2: The value of percent of control at 10^−7 M was from 40% to 60% or the value of IC′50 was from 50 nM to 200 nM.) |
| CN(C)c1ccnc(N[C@H]2CC[C@@H](NC(=S)Nc3ccc(Br)cc3OC(F)(F)F)CC2)n1 [compound 2352] | 3 (Class 3 The value of percent of control at 10^−7 M was more than 60% or the value of IC50 was more than 200 nM.) |

Same assay, conditions: MCH receptor; class by percent of control at 10^-7 M or IC50

| Compound | class |
| --- | --- |
| C=C(C)CNC(=S)N[C@H]1CC[C@@H](Nc2nc3c(c(N(C)C)n2)CCCC3)CC1 [compound 1950] | 3 (Class 3 The value of percent of control at 10^−7 M was more than 60% or the value of IC50 was more than 200 nM.) |
| CN(C)c1nc(N[C@H]2CC[C@@H](NC(=S)Nc3ccc(Oc4ccccc4)cc3)CC2)nc2c1CCCC2 [compound 2053] | 3 (Class 3 The value of percent of control at 10^−7 M was more than 60% or the value of IC50 was more than 200 nM.) |
| CN(C)c1cc(N[C@H]2CC[C@@H](CNC(=O)c3cc(C(C)(C)C)nn3Cc3ccccc3)CC2)nc2ccccc12 [compound 212] | 3 (Class 3 The value of percent of control at 10^−7 M was more than 60% or the value of IC50 was more than 200 nM.) |
| CN(C)c1nc(N[C@H]2CC[C@@H](NC(=S)Nc3ccccc3Cl)CC2)nc2c1CCCC2 [compound 1964] | 3 (Class 3 The value of percent of control at 10^−7 M was more than 60% or the value of IC50 was more than 200 nM.) |

Same assay, conditions: activity class 1-3: percent of control at 10^-7 M or IC50

| Compound | class |
| --- | --- |
| CCc1cccc(CC)c1NC(=O)N[C@H]1CC[C@@H](Nc2nc3c(c(N(C)C)n2)CCCC3)CC1 [compound 1672] | 1 (Class 1: The value of percent of control at 10^−7 M was less than 40% or the value of IC50 was less than 50 nM.) |
| CC(C)[C@@H]1CC[C@@H](C)CC1OC(=O)N[C@H]1CC[C@@H](Nc2nccc(N(C)C)n2)CC1 (stereo partly drawn) [compound 1633] | 3 (Class 3 The value of percent of control at 10^−7 M was more than 60% or the value of IC50 was more than 200 nM.) |

Same assay, conditions: activity class per percent of control at 10^-7 M or IC50

| Compound | class |
| --- | --- |
| CCOc1ccc(C(=O)CC(C(=O)NC[C@H]2CC[C@@H](Nc3nc4c(c(N(C)C)n3)CCCC4)CC2)C2C(=O)N(c3ccccc3)N=C2C)cc1 (relative stereo) [compound 1080] | 3 (Class 3 The value of percent of control at 10^−7 M was more than 60% or the value of IC50 was more than 200 nM.) |
| CCOc1ccccc1CN[C@H]1CC[C@@H](Nc2cc(N(C)C)c3ccccc3n2)CC1 [compound 1086] | 3 (Class 3 The value of percent of control at 10^−7 M was more than 60% or the value of IC50 was more than 200 nM.) |

Same assay, conditions: class 1-3 by percent of control at 10^-7 M or IC50

| Compound | class |
| --- | --- |
| CN(C)c1nc(N[C@H]2CC[C@@H](NC(=O)c3ccc(F)c(Cl)c3)CC2)nc2c1CCCC2 [compound 509] | 1 (Class 1: The value of percent of control at 10^−7 M was less than 40% or the value of IC50 was less than 50 nM.) |
| CN(C)c1nc(N[C@H]2CC[C@@H](CNC(=O)c3cc(Cl)cc(Cl)c3)CC2)nc2c1CCCC2 [compound 592] | 3 (Class 3 The value of percent of control at 10^−7 M was more than 60% or the value of IC50 was more than 200 nM.) |
| C/C(=C\c1ccccc1)C(=O)NC[C@H]1CC[C@@H](Nc2nccc(N(C)C)n2)CC1 [compound 432] | 3 (Class 3 The value of percent of control at 10^−7 M was more than 60% or the value of IC50 was more than 200 nM.) |

Same assay, conditions: class by percent of control at 10^-7 M or IC50

| Compound | class |
| --- | --- |
| COc1cc(CNC[C@H]2CC[C@@H](Nc3cc(N(C)C)c4ccccc4n3)CC2)cc(F)c1O [compound 1199] | 3 (Class 3 The value of percent of control at 10^−7 M was more than 60% or the value of IC50 was more than 200 nM.) |
| CCc1cccc(C)c1NC(=S)N[C@H]1CC[C@@H](Nc2cc(N(C)C)c3ccccc3n2)CC1 [compound 2280] | 3 (Class 3 The value of percent of control at 10^−7 M was more than 60% or the value of IC50 was more than 200 nM.) |
| CN(C)c1nc(N[C@H]2CC[C@@H](NC(=S)NCc3cccc(Cl)c3)CC2)nc2c1CCCC2 [compound 1772] | 3 (Class 3 The value of percent of control at 10^−7 M was more than 60% or the value of IC50 was more than 200 nM.) |
| CN(C)c1ccnc(N[C@H]2CC[C@@H](CNC(=O)C(c3ccc(Cl)cc3)c3ccc(Cl)cc3)CC2)n1 [compound 937, 2,2-bis(4-chlorophenyl)-N-[(cis-4-{[4-(dimethylamino)pyrimidin-2-yl]amino}cyclohexyl)methyl]acetamide] | 1 (Class 1: The value of percent of control at 10^−7 M was less than 40% or the value of IC50 was less than 50 nM.) |
| CN(C)c1cc(N[C@H]2CC[C@@H](NC(=O)c3ccccc3Cc3ccccc3)CC2)nc2ccccc12 [compound 685] | 3 (Class 3 The value of percent of control at 10^−7 M was more than 60% or the value of IC50 was more than 200 nM.) |
| CN(C)c1ccnc(N[C@H]2CC[C@@H](NC(=O)c3ccc(Br)s3)CC2)n1 [compound 812] | 3 (Class 3 The value of percent of control at 10^−7 M was more than 60% or the value of IC50 was more than 200 nM.) |
| CCCc1ccccc1NC(=O)N[C@H]1CC[C@@H](Nc2nccc(N(C)C)n2)CC1 [compound 2202] | 3 (Class 3 The value of percent of control at 10^−7 M was more than 60% or the value of IC50 was more than 200 nM.) |
| Cc1cc(Br)ccc1NC(=O)N[C@H]1CC[C@@H](Nc2cc(N(C)C)c3ccccc3n2)CC1 [compound 2159] | 2 (Class 2: The value of percent of control at 10^−7 M was from 40% to 60% or the value of IC′50 was from 50 nM to 200 nM.) |
| CN(C)c1cc(N[C@H]2CC[C@@H](CNCc3ccccc3SC(F)(F)F)CC2)nc2ccccc12 [compound 1165] | 3 (Class 3 The value of percent of control at 10^−7 M was more than 60% or the value of IC50 was more than 200 nM.) |
| CN(C)c1ccnc(N[C@H]2CC[C@@H](NC(=O)Cc3ccccc3Br)CC2)n1 [compound 298] | 3 (Class 3 The value of percent of control at 10^−7 M was more than 60% or the value of IC50 was more than 200 nM.) |
| CN(C)c1ccnc(N[C@H]2CC[C@@H](CNC(=O)c3cccc([N+](=O)[O-])c3)CC2)n1 [compound 389] | 3 (Class 3 The value of percent of control at 10^−7 M was more than 60% or the value of IC50 was more than 200 nM.) |
| CN(C)c1ccnc(N[C@H]2CC[C@@H](NC(=O)CCC(=O)c3ccc(F)cc3)CC2)n1 [compound 846] | 3 (Class 3 The value of percent of control at 10^−7 M was more than 60% or the value of IC50 was more than 200 nM.) |
| Cc1cc(C)c(NC(=O)Nc2ccc(OC(F)(F)F)cc2)c(C(=O)N[C@H]2CC[C@@H](Nc3cc(N(C)C)c4ccccc4n3)CC2)c1 [compound 718] | 3 (Class 3 The value of percent of control at 10^−7 M was more than 60% or the value of IC50 was more than 200 nM.) |
| COc1cc(OC)c(NC(=O)N[C@H]2CC[C@@H](Nc3cc(N(C)C)c4ccccc4n3)CC2)cc1Cl [compound 2157, N-(5-chloro-2,4-dimethoxyphenyl)-N′-(cis-4-{[4-(dimethylamino)quinolin-2-yl]amino}cyclohexyl)urea] | 1 (Class 1: The value of percent of control at 10^−7 M was less than 40% or the value of IC50 was less than 50 nM.) |
| CN(C)c1ccnc(N[C@H]2CC[C@@H](CNCC=C(c3ccccc3)c3ccccc3)CC2)n1 [compound 1279] | 1 (Class 1: The value of percent of control at 10^−7 M was less than 40% or the value of IC50 was less than 50 nM.) |
| CN(C)c1ccnc(N[C@H]2CC[C@@H](NC(=O)c3cccc(C#N)c3)CC2)n1 [compound 247] | 3 (Class 3 The value of percent of control at 10^−7 M was more than 60% or the value of IC50 was more than 200 nM.) |
| Cc1ccc(CNC[C@H]2CC[C@@H](Nc3nccc(N(C)C)n3)CC2)s1 [compound 1301] | 3 (Class 3 The value of percent of control at 10^−7 M was more than 60% or the value of IC50 was more than 200 nM.) |
| CN(C)c1cc(N[C@H]2CC[C@@H](CNC(=O)Cc3ccccc3I)CC2)nc2ccccc12 [compound 796] | 3 (Class 3 The value of percent of control at 10^−7 M was more than 60% or the value of IC50 was more than 200 nM.) |
| CN(C)c1cc(N[C@H]2CC[C@@H](CNC(=O)c3cc(F)ccc3Cl)CC2)nc2ccccc12 [compound 225] | 3 (Class 3 The value of percent of control at 10^−7 M was more than 60% or the value of IC50 was more than 200 nM.) |
| CCOc1ccccc1CNC[C@H]1CC[C@@H](Nc2nccc(N(C)C)n2)CC1 [compound 1244] | 2 (Class 2: The value of percent of control at 10^−7 M was from 40% to 60% or the value of IC′50 was from 50 nM to 200 nM.) |
| CN(C)c1cc(N[C@H]2CC[C@@H](NC(=O)Nc3c(F)cc(Br)cc3F)CC2)nc2ccccc12 [compound 2116] | 3 (Class 3 The value of percent of control at 10^−7 M was more than 60% or the value of IC50 was more than 200 nM.) |
| CN(C)c1nc(N[C@H]2CC[C@@H](CNC(=O)Nc3cc(Cl)cc(Cl)c3)CC2)nc2c1CCCC2 [compound 2485] | 3 (Class 3 The value of percent of control at 10^−7 M was more than 60% or the value of IC50 was more than 200 nM.) |

Same assay, conditions: class by percent of control at 10^−7 M or IC50

| Compound | class |
| --- | --- |
| Cc1cc(N(C)C)nc(N[C@H]2CC[C@@H](C(=O)NCc3ccc(Cl)c(Cl)c3)CC2)n1 [compound 2817, cis-N-(3,4-dichlorobenzyl)-4-{[4-(dimethylamino)-6-methylpyrimidin-2-yl]amino}cyclohexanecarboxamide] | 1 (Class 1: The value of percent of control at 10^−7 M was less than 40% or the value of IC50 was less than 50 nM.) |
| Cc1cnc(N[C@H]2CC[C@@H](NC(=O)c3ccc(Br)cc3)CC2)nc1N(C)C [compound 2911, 4-bromo-N-(cis-4-{[4-(dimethylamino)-5-methylpyrimidin-2-yl]amino}cyclohexyl)benzamide] | 1 (Class 1: The value of percent of control at 10^−7 M was less than 40% or the value of IC50 was less than 50 nM.) |
